In ChEMBL document CHEMBL3045245, “Synthesis and antitumor activities of certain novel 2-amino-9-(4-halostyryl)-4H-pyrano[3,2-h]quinoline derivatives” (Med Chem Res, 2012):
Converted amounts (≈) assume the structure as drawn.

Tests used:
HepG2 [1] = test: Cytotoxicity against Homo sapiens (human) HepG2 cells after 48 hr by MTT assay; type: functional, cell-based; settings: HepG2, 48 h
[2] = Cytotoxicity against Homo sapiens (human) HCT cells assessed as cell viability at 12.5 ug/ml after 48 hr by MTT assay; type: functional; settings: read-out: Activity
HepG2 [3] = test: Cytotoxicity against Homo sapiens (human) HepG2 cells assessed as cell viability at 1.56 ug/ml after 48 hr by MTT assay; type: functional; settings: HepG2, 48 h, read-out: Activity
[4] = Cytotoxicity against Homo sapiens (human) HCT cells assessed as cell viability at 25 ug/ml after 48 hr by MTT assay; type: functional; settings: read-out: Activity
[5] = Cytotoxicity against Homo sapiens (human) HCT cells assessed as cell viability at 50 ug/ml after 48 hr by MTT assay; type: functional; settings: read-out: Activity
[6] = Cytotoxicity against Homo sapiens (human) HCT cells after 48 hr by MTT assay; type: functional, cell-based
HepG2 [7] = test: Cytotoxicity against Homo sapiens (human) HepG2 cells assessed as cell viability at 12.5 ug/ml after 48 hr by MTT assay; type: functional; settings: HepG2, 48 h, read-out: Activity
MCF7 [8] = test: Cytotoxicity against Homo sapiens (human) MCF7 cells assessed as cell viability at 50 ug/ml after 48 hr by MTT assay; type: functional; settings: MCF7, 48 h, read-out: Activity
MCF7 [9] = test: Cytotoxicity against Homo sapiens (human) MCF7 cells assessed as cell viability at 6.25 ug/ml after 48 hr by MTT assay; type: functional; settings: MCF7, 48 h, read-out: Activity
[10] = Cytotoxicity against Homo sapiens (human) HCT cells assessed as cell viability at 3.125 ug/ml after 48 hr by MTT assay; type: functional; settings: read-out: Activity
MCF7 [11] = test: Cytotoxicity against Homo sapiens (human) MCF7 cells after 48 hr by MTT assay; type: functional, cell-based; settings: MCF7, 48 h
MCF7 [12] = test: Cytotoxicity against Homo sapiens (human) MCF7 cells assessed as cell viability at 25 ug/ml after 48 hr by MTT assay; type: functional; settings: MCF7, 48 h, read-out: Activity
[13] = Cytotoxicity against Homo sapiens (human) HCT cells assessed as cell viability at 1.56 ug/ml after 48 hr by MTT assay; type: functional; settings: read-out: Activity
HepG2 [14] = test: Cytotoxicity against Homo sapiens (human) HepG2 cells assessed as cell viability at 50 ug/ml after 48 hr by MTT assay; type: functional; settings: HepG2, 48 h, read-out: Activity
MCF7 [15] = test: Cytotoxicity against Homo sapiens (human) MCF7 cells assessed as cell viability at 3.125 ug/ml after 48 hr by MTT assay; type: functional; settings: MCF7, 48 h, read-out: Activity
HepG2 [16] = test: Cytotoxicity against Homo sapiens (human) HepG2 cells assessed as cell viability at 3.125 ug/ml after 48 hr by MTT assay; type: functional; settings: HepG2, 48 h, read-out: Activity
MCF7 [17] = test: Cytotoxicity against Homo sapiens (human) MCF7 cells assessed as cell viability at 12.5 ug/ml after 48 hr by MTT assay; type: functional; settings: MCF7, 48 h, read-out: Activity
HepG2 [18] = test: Cytotoxicity against Homo sapiens (human) HepG2 cells assessed as cell viability at 25 ug/ml after 48 hr by MTT assay; type: functional; settings: HepG2, 48 h, read-out: Activity
MCF7 [19] = test: Cytotoxicity against Homo sapiens (human) MCF7 cells assessed as cell viability at 1.56 ug/ml after 48 hr by MTT assay; type: functional; settings: MCF7, 48 h, read-out: Activity
HepG2 [20] = test: Cytotoxicity against Homo sapiens (human) HepG2 cells assessed as cell viability at 6.25 ug/ml after 48 hr by MTT assay; type: functional; settings: HepG2, 48 h, read-out: Activity
[21] = Cytotoxicity against Homo sapiens (human) HCT cells assessed as cell viability at 6.25 ug/ml after 48 hr by MTT assay; type: functional; settings: read-out: Activity

SMILES	IC50 (HepG2 [1]) [µg/mL]	viability at 12.5 µg/mL [2] [%]	viability at 1.56 µg/mL (HepG2 [3]) [%]	viability at 25 µg/mL [4] [%]	viability at 50 µg/mL [5] [%]	IC50 [6] [µg/mL]	viability at 12.5 µg/mL (HepG2 [7]) [%]	viability at 50 µg/mL (MCF7 [8]) [%]	viability at 6.25 µg/mL (MCF7 [9]) [%]	viability at 3.125 µg/mL [10] [%]	IC50 (MCF7 [11]) [µg/mL]	viability at 25 µg/mL (MCF7 [12]) [%]	viability at 1.56 µg/mL [13] [%]	viability at 50 µg/mL (HepG2 [14]) [%]	viability at 3.125 µg/mL (MCF7 [15]) [%]	viability at 3.125 µg/mL (HepG2 [16]) [%]	viability at 12.5 µg/mL (MCF7 [17]) [%]	viability at 25 µg/mL (HepG2 [18]) [%]	viability at 1.56 µg/mL (MCF7 [19]) [%]	viability at 6.25 µg/mL (HepG2 [20]) [%]	other results
CCOC(=O)C1=C(N)Oc2c(ccc3ccc(/C=C/c4ccc(F)cc4)nc23)C1c1ccc(Cl)cc1 (stereo not given)	47.5 (≈ 94.8 µM)	69.5	98.9	51.3	19.8	26.2 (≈ 52.3 µM)	79.4	34.6	84.7	80.6	37.9 (≈ 75.7 µM)	61.2	98.9	45.2	92.1	96.4	73.5	69	98.5	85.1	viability at 6.25 µg/mL [21]: 73.1%
N#CC1=C(N)Oc2c(ccc3ccc(/C=C/c4ccc(Cl)cc4)nc23)C1c1ccc(Cl)cc1 (stereo not given)	48.2 (≈ 102 µM)	33.8	95.4	29	24.7	4.8 (≈ 10.2 µM)	74	29.6	45.4	59	5.6 (≈ 11.9 µM)	33.8	69.1	48.4	61.9	85.8	39.7	68.2	86.6	79.2	viability at 6.25 µg/mL [21]: 42.6%
N#CC1=C(N)Oc2c(ccc3ccc(/C=C/c4ccc(Cl)cc4)nc23)C1c1ccc(Br)cc1 (stereo not given)	23.2 (≈ 45.1 µM)	47.8	94.6	34.2	27.4	11.9 (≈ 23.1 µM)	69.6	32.4	61.8	72.5	12.5 (≈ 24.3 µM)	39.9	80.4	33.8	83.1	87.9	50.3	44.9	98.5	77.2	viability at 6.25 µg/mL [21]: 69.8%
N#CC1=C(N)Oc2c(ccc3ccc(/C=C/c4ccc(Br)cc4)nc23)C1c1ccc(Cl)cc1 (stereo not given)	7.5 (≈ 14.6 µM)	41.9	77.9	30.3	22.8	10.2 (≈ 19.8 µM)	39.4	29.4	64.7	89.8	15.9 (≈ 30.9 µM)	41.2	98	25.2	73	64.4	53.1	29	80.6	53.1	viability at 6.25 µg/mL [21]: 74.9%
N#CC1=C(N)Oc2c(ccc3ccc(/C=C/c4ccc(Br)cc4)nc23)C1c1ccc(Br)cc1 (stereo not given)	8.7 (≈ 15.6 µM)	51	74.3	33.5	24	12.7 (≈ 22.7 µM)	34.1	22.4	40.6	90.7	3.9 (≈ 6.97 µM)	27.4	95.7	16	53.1	54.8	31.7	25.7	61.1	41.4	viability at 6.25 µg/mL [21]: 80.5%
